From ChEMBL document CHEMBL5137044, “Expansion of the S-CN-DABO scaffold to exploit the impact on inhibitory activities against the non-nucleoside HIV-1 reverse transcriptase” (Eur J Med Chem, 2022)

Assays:
[1] = test system: Human immunodeficiency virus 1; experiment: Antiviral activity against drug-resistant HIV-1 L100I mutant infected in human MT4 cells assessed as reduction in virus-induced cytopathic effect incubated for 5 days by MTT assay; type: functional, organism-based; conditions: Human immunodeficiency virus 1, L100I mutant, MT4, 120 h
[2] = test system: Human immunodeficiency virus 1; experiment: Antiviral activity against […] HIV-1 infected in human MT4 cells assessed as reduction in virus-induced cytopathic effect incubated for 5 days by MTT assay; type: functional, organism-based; conditions: Human immunodeficiency virus 1, MT4, 120 h
[3] = Fold resistance, ratio of EC50 for antiviral activity against drug-resistant HIV-1 K103 N mutant infected in human MT4 cells to EC50 for antiviral activity against […] HIV-1 infected in human MT4 cells; type: functional
[4] = Fold resistance, ratio of EC50 for antiviral activity against drug-resistant HIV-1 Y181C mutant infected in human MT4 cells to EC50 for antiviral activity against […] HIV-1 infected in human MT4 cells; type: functional
[5] = test system: Human immunodeficiency virus 1; experiment: Antiviral activity against drug-resistant HIV-1 K103 N mutant infected in human MT4 cells assessed as reduction in virus-induced cytopathic effect incubated for 5 days by MTT assay; type: functional, organism-based; conditions: Human immunodeficiency virus 1, K103 N mutant, MT4, 120 h
[6] = Fold resistance, ratio of EC50 for antiviral activity against drug-resistant HIV-1 L100I mutant infected in human MT4 cells to EC50 for antiviral activity against […] HIV-1 infected in human MT4 cells; type: functional
[7] = Selectivity index, ratio of CC50 for human MT4 cells to EC50 for antiviral activity against NNRTI resistant HIV-1 infected in human MT4 cells; type: toxicity, cell-based; conditions: read-out: Ratio CC50/EC50
[8] = test system: Human immunodeficiency virus 1; experiment: Antiviral activity against drug-resistant HIV-1 Y181C mutant infected in human MT4 cells assessed as reduction in virus-induced cytopathic effect incubated for 5 days by MTT assay; type: functional, organism-based; conditions: Human immunodeficiency virus 1, Y181C mutant, MT4, 120 h
[9] = test system: Human immunodeficiency virus 1; experiment: Antiviral activity against drug-resistant HIV-1 E138K mutant infected in human MT4 cells assessed as reduction in virus-induced cytopathic effect incubated for 5 days by MTT assay; type: functional, organism-based; conditions: Human immunodeficiency virus 1, E138K mutant, MT4, 120 h
[10] = test system: Human immunodeficiency virus 1; experiment: Antiviral activity against drug-resistant HIV-1 Y188L mutant infected in human MT4 cells assessed as reduction in virus-induced cytopathic effect incubated for 5 days by MTT assay; type: functional, organism-based; conditions: Human immunodeficiency virus 1, Y188L mutant, MT4, 120 h
[11] = biological target: Human immunodeficiency virus type 1 reverse transcriptase (Human immunodeficiency virus 1, UniProt Q72547); experiment: Inhibition of recombinant wild-type p66/p51 HIV-1 reverse transcriptase incubated for 40 mins by picogreen dye-based spectrofluorometric analysis
[12] = Fold resistance, ratio of EC50 for antiviral activity against drug-resistant HIV-1 Y188L mutant infected in human MT4 cells to EC50 for antiviral activity against […] HIV-1 infected in human MT4 cells; type: functional
[13] = Cytotoxicity against human MT4 cells assessed as cell growth inhibition incubated for 5 days by MTT assay; type: toxicity, cell-based; conditions: time 5 day
[14] = Fold resistance, ratio of EC50 for antiviral activity against drug-resistant HIV-1 E138K mutant infected in human MT4 cells to EC50 for antiviral activity against […] HIV-1 infected in human MT4 cells; type: functional

## Cc1c(C(C#N)c2cccc(C(F)(F)F)c2)nc(SC(C)C)[nH]c1=O (stereo not given)
[1]
  EC50: 12.1 µM
[2]
  EC50: 1.06 µM
[3]
  Ratio EC50: >57
[4]
  Ratio EC50: 9
[5]
  EC50: > 60.4 µM
[6]
  Ratio EC50: 11
[7]
  selectivity ratio: 65
[8]
  EC50: 9.98 µM
[9]
  EC50: 2.71 µM
[10]
  EC50: > 69.2 µM
[11]
  IC50: 2.71 µM
[12]
  Ratio EC50: >65
[13]
  CC50 at 120 h: 69.2 µM
[14]
  Ratio EC50: 3

## Cc1c(C(C#N)c2ccccc2Br)nc(SC(C)C)[nH]c1=O (stereo not given)
[1]
  EC50: 2 µM
[2]
  EC50: 0.115 µM
[3]
  Ratio EC50: 246
[4]
  Ratio EC50: 46
[5]
  EC50: 28.2 µM
[6]
  Ratio EC50: 17
[7]
  selectivity ratio: 676
[8]
  EC50: 5.28 µM
[9]
  EC50: 0.2 µM
[10]
  EC50: 54 µM
[11]
  IC50: 0.198 µM
[12]
  Ratio EC50: 469
[13]
  CC50 at 120 h: 77.6 µM
[14]
  Ratio EC50: 2

## Cc1c(C(C#N)c2ccc(C(C)C)cc2)nc(SC(C)C)[nH]c1=O (stereo not given)
[1]
  EC50: 5.51 µM
[2]
  EC50: 0.6 µM
[3]
  Ratio EC50: >375
[4]
  Ratio EC50: 17
[5]
  EC50: > 225 µM
[6]
  Ratio EC50: 9
[7]
  selectivity ratio: 376
[8]
  EC50: 10.2 µM
[9]
  EC50: 1.5 µM
[10]
  EC50: > 225 µM
[11]
  IC50: 2.15 µM
[12]
  Ratio EC50: >375
[13]
  CC50 at 120 h: 225 µM
[14]
  Ratio EC50: 3

## Cc1cc(C)cc(C(C#N)c2nc(SC(C)C)[nH]c(=O)c2C)c1 (stereo not given)
[1]
  EC50: 2.29 µM
[2]
  EC50: 0.079 µM
[3]
  Ratio EC50: 115
[4]
  Ratio EC50: 52
[5]
  EC50: 9.05 µM
[6]
  Ratio EC50: 29
[7]
  selectivity ratio: 2770
[8]
  EC50: 4.11 µM
[9]
  EC50: 0.45 µM
[10]
  EC50: 55.5 µM
[11]
  IC50: 0.226 µM
[12]
  Ratio EC50: 702
[13]
  CC50 at 120 h: 220 µM
[14]
  Ratio EC50: 6

## Cc1c(C(C#N)c2ccccc2F)nc(SC(C)C)[nH]c1=O (stereo not given)
[1]
  EC50: 3.53 µM
[2]
  EC50: 0.055 µM
[3]
  Ratio EC50: 192
[4]
  Ratio EC50: 71
[5]
  EC50: 10.6 µM
[6]
  Ratio EC50: 64
[7]
  selectivity ratio: 2030
[8]
  EC50: 3.92 µM
[9]
  EC50: 0.17 µM
[10]
  EC50: > 113 µM
[11]
  IC50: 0.099 µM
[12]
  Ratio EC50: >2051
[13]
  CC50 at 120 h: 113 µM
[14]
  Ratio EC50: 3

## Cc1c(C(C#N)c2cc(Cl)cc(C(F)(F)F)c2)nc(SC(C)C)[nH]c1=O (stereo not given)
[1]
  EC50: > 23.1 µM
[2]
  EC50: 4.17 µM
[3]
  Ratio EC50: >6
[4]
  Ratio EC50: >6
[5]
  EC50: > 23.1 µM
[6]
  Ratio EC50: >6
[7]
  selectivity ratio: 6
[8]
  EC50: > 23.1 µM
[9]
  EC50: 10.9 µM
[10]
  EC50: > 23.1 µM
[11]
  IC50: 3.52 µM
[12]
  Ratio EC50: >6
[13]
  CC50 at 120 h: 23.1 µM
[14]
  Ratio EC50: 3

## Cc1ccccc1C(C#N)c1nc(SC(C)C)[nH]c(=O)c1C (stereo not given)
[1]
  EC50: 3.23 µM
[2]
  EC50: 0.116 µM
[3]
  Ratio EC50: 416
[4]
  Ratio EC50: 48
[5]
  EC50: 48.2 µM
[6]
  Ratio EC50: 28
[7]
  selectivity ratio: 960
[8]
  EC50: 5.52 µM
[9]
  EC50: 0.26 µM
[10]
  EC50: 63.4 µM
[11]
  IC50: 0.68 µM
[12]
  Ratio EC50: 546
[13]
  CC50 at 120 h: 111 µM
[14]
  Ratio EC50: 2

## Cc1c(C(C#N)c2cccc(F)c2)nc(SC(C)C)[nH]c1=O (stereo not given)
[1]
  EC50: 13.5 µM
[2]
  EC50: 0.268 µM
[3]
  Ratio EC50: 245
[4]
  Ratio EC50: 26
[5]
  EC50: 65.6 µM
[6]
  Ratio EC50: 50
[7]
  selectivity ratio: 754
[8]
  EC50: 6.89 µM
[9]
  EC50: 0.96 µM
[10]
  EC50: > 202 µM
[11]
  IC50: 0.829 µM
[12]
  Ratio EC50: >753
[13]
  CC50 at 120 h: 202 µM
[14]
  Ratio EC50: 4

## Cc1ccc(C(C#N)c2nc(SC(C)C)[nH]c(=O)c2C)cc1 (stereo not given)
[1]
  EC50: > 12.9 µM
[2]
  EC50: 0.32 µM
[3]
  Ratio EC50: >40
[4]
  Ratio EC50: >40
[5]
  EC50: > 12.9 µM
[6]
  Ratio EC50: >40
[7]
  selectivity ratio: 40
[8]
  EC50: > 12.9 µM
[9]
  EC50: 0.63 µM
[10]
  EC50: > 12.9 µM
[11]
  IC50: 0.667 µM
[12]
  Ratio EC50: >40
[13]
  CC50 at 120 h: 12.8 µM
[14]
  Ratio EC50: 2

## Cc1c(C(C#N)c2cccc(Cl)c2)nc(SC(C)C)[nH]c1=O (stereo not given)
[1]
  EC50: 11.2 µM
[2]
  EC50: 0.35 µM
[3]
  Ratio EC50: 144
[4]
  Ratio EC50: 21
[5]
  EC50: 50.3 µM
[6]
  Ratio EC50: 32
[7]
  selectivity ratio: 493
[8]
  EC50: 7.27 µM
[9]
  EC50: 0.87 µM
[10]
  EC50: > 69.7 µM
[11]
  IC50: 0.713 µM
[12]
  Ratio EC50: >199
[13]
  CC50 at 120 h: 172 µM
[14]
  Ratio EC50: 2
